Values quoted from earlier work as cited in patent US10463641B2, “Method for using small molecule compounds to induce human tumor cells to be directly reprogrammed into non-oncogenic cells” (Transcend Cytotherapy Co., Ltd, priority 2015, dated 2019).
Blank lines part the entries; values can stand above or below the molecule they belong to.

What was measured:
[1] = tested on: TGF-β type II receptor and activin type II receptor
BMP type II receptor = target: T1, BMP type II receptor (Homo sapiens, UniProt Q13873)
T1 sequence (Q13873 27-1038): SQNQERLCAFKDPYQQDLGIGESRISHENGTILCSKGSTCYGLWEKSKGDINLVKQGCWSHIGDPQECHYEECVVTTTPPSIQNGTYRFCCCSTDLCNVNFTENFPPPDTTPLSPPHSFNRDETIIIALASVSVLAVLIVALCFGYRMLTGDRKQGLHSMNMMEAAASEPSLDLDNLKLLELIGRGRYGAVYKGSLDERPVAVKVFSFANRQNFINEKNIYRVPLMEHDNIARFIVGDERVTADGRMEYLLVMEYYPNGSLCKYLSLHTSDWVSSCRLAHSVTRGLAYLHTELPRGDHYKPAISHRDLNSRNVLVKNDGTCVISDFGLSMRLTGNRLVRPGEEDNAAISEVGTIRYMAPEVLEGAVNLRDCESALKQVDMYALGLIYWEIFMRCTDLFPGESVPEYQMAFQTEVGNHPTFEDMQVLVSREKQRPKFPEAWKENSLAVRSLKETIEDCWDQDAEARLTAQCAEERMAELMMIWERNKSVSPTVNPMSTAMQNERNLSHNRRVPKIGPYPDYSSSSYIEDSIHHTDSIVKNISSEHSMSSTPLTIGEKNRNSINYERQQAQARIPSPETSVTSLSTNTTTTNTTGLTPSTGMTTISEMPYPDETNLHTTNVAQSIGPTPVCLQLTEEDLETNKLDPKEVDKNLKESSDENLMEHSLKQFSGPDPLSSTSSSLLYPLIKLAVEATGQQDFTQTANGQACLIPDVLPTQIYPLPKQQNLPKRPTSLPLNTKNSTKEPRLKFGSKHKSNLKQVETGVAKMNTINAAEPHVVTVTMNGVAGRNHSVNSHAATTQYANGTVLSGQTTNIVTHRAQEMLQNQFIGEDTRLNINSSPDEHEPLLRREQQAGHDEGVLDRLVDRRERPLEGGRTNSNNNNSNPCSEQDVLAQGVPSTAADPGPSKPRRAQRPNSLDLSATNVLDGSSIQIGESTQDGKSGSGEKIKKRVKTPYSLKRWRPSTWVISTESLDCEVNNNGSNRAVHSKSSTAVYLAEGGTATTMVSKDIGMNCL

GSK-3β = GSK-3β (Homo sapiens, UniProt P49841); conditions: vs CDC2, ERK2 and other kinases
ALK1 = ALK1 (Homo sapiens, UniProt P37023)
ALK6 = ALK6 (Homo sapiens, UniProt O00238)
ALK5 = ALK5 (Homo sapiens, UniProt P36897); conditions: vs TGF-βRII
ALK7 = target: T2, ALK7 (Homo sapiens, UniProt Q8NER5); conditions: qualitative
T2 sequence (Q8NER5 21-493): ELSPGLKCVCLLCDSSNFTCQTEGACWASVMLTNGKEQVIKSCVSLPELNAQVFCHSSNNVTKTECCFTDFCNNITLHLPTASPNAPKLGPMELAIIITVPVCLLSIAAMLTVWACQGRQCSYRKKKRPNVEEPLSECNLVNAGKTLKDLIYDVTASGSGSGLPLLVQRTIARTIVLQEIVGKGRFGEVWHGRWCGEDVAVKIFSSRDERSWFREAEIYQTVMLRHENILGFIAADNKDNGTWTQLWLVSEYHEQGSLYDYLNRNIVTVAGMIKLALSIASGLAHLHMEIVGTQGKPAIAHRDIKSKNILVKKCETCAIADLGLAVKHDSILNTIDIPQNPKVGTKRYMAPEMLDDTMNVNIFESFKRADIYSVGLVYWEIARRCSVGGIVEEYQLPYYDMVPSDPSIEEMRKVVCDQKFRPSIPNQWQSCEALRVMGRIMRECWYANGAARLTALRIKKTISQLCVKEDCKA

ALK2 = ALK2 (Homo sapiens, UniProt Q04771); conditions: DMH1
[2] = tested on: AMPK, ALK5, KDR (VEGFR-2) and PDGFR
BMP type I receptor ALK3 = conditions: C2C12 cells; read-out: IC50, transcription activity of BMP type I receptor ALK3
ALK4 = target: T3, ALK4 (Homo sapiens, UniProt P36896); conditions: ALK4 vs ALK5
T3 sequence (P36896 24-505): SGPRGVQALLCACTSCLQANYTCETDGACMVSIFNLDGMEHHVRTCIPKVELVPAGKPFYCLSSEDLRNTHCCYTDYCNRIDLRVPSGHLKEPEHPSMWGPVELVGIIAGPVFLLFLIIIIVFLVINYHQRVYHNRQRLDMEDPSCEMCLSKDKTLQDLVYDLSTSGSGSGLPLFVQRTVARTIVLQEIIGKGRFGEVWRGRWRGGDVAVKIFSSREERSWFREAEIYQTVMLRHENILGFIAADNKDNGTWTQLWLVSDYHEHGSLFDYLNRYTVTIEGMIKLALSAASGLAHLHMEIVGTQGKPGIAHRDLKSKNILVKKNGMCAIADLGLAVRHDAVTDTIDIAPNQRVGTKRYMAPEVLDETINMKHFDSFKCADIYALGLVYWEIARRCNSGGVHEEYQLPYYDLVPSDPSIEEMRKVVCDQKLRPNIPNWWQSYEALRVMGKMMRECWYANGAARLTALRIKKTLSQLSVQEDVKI

Chain of ALK1 (P37023 22-503, species assumed): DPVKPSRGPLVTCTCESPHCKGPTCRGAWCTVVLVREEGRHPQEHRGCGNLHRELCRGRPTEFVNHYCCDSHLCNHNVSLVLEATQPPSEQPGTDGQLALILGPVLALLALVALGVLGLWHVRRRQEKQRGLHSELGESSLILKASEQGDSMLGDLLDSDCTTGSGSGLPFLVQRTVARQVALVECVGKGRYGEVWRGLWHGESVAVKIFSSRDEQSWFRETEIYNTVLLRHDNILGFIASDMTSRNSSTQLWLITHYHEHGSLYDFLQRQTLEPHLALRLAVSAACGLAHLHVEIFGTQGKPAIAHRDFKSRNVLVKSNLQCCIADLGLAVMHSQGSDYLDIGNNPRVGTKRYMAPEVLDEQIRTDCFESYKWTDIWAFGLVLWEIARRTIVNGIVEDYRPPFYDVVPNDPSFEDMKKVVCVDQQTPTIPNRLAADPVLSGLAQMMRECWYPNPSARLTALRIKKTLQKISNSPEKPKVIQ
Chain of ALK2 (Q04771 21-509): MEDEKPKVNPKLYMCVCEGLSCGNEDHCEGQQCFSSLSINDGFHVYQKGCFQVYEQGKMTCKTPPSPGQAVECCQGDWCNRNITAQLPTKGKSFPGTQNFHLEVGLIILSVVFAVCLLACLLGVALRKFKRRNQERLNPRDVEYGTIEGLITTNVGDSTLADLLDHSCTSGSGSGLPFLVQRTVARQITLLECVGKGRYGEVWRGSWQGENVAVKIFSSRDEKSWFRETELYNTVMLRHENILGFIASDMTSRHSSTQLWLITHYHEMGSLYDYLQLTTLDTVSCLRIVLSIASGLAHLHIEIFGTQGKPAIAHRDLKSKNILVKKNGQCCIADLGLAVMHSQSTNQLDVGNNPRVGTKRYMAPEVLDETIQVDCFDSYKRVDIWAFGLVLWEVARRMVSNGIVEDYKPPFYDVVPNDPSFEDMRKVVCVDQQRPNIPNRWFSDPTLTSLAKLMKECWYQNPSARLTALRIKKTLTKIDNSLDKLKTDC
Chain of ALK5 (P36897 34-503, species assumed): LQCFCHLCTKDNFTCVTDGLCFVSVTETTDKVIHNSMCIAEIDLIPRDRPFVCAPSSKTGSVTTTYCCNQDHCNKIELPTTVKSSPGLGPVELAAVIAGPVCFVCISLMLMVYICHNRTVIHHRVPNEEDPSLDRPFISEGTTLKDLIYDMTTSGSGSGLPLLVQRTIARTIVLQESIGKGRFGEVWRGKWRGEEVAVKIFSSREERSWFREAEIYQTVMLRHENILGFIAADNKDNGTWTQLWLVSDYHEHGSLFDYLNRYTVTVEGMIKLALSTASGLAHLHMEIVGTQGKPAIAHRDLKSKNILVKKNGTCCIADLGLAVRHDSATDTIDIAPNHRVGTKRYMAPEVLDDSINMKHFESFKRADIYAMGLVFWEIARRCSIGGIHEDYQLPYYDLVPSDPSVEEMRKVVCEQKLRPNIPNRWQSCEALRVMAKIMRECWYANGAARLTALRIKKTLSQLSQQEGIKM
Chain of ALK6 (O00238 14-502): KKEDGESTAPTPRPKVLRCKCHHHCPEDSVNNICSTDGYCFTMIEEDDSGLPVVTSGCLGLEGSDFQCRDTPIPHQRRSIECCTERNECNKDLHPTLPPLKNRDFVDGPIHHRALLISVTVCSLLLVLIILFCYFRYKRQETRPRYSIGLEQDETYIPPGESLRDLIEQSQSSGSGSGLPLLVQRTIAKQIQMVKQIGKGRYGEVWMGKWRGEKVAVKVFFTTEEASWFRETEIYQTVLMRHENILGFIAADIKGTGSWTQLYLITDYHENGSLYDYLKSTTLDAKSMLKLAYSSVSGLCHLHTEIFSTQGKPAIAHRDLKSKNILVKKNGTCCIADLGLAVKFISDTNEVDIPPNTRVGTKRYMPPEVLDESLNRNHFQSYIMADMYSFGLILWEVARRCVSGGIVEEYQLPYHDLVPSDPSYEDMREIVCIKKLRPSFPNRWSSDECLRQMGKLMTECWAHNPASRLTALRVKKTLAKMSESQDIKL
Chain of GSK-3β (P49841 whole entry): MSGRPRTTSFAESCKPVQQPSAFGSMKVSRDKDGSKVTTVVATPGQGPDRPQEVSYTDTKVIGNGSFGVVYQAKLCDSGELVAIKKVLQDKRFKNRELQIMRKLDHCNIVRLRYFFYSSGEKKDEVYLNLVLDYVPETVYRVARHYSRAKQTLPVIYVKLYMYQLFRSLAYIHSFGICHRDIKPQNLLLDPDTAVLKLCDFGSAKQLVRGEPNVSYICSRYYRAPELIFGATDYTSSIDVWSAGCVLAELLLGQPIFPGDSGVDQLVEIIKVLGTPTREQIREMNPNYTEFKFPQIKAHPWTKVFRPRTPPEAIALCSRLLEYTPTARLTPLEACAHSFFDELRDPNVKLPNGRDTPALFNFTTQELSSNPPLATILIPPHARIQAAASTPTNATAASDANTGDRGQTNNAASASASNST

Molecule: O=C(NC1CCOCC1)c1ccc(-c2cc(-c3c[nH]nc3-c3ccccn3)ccn2)cc1 [GW788388]
inhibition of TGF-β type II receptor and activin type II receptor [1]: also inhibiting
inhibition of BMP type II receptor (BMP type II receptor): not BMP type II receptor

Molecule: Cc1cnc(-c2cnc(NCCNc3ccc(C#N)cn3)nc2-c2ccc(Cl)cc2Cl)[nH]1 [CHIR-99021]
inhibition of GSK-3 stronger than inhibition on CDC2, ERK2 and other kinases (GSK-3β): 500 fold

IC50 (ALK1): 1.8 nM
IC50 (ALK6): 6.4 nM
Molecule: COc1cc(-c2cc(-c3cccc(O)c3)cnc2N)cc(OC)c1OC [Medium K02288]
inhibiting activity on other ALK5 (3, 4, 5) and ActRIIa (and ActRIIa): slight inhibiting activity

selectivity for TGF-βRI (ALK5) higher than on TGF-βRII (ALK5): more than 100 fold
Molecule: SD-208

Molecule: Cc1cccc(-c2[nH]c(C(C)(C)C)nc2-c2ccc3c(c2)OCO3)n1 [SB505124]
inhibition of ALK7 (ALK7): also inhibiting ALK7
inhibition of ALK1, 2, 3 or 6 (ALK1, 2, 3 or 6): not ALK1, 2, 3 or 6

IC50 (ALK2): 108 nM
Molecule: CC(C)Oc1ccc(-c2cnc3c(-c4ccnc5ccccc45)cnn3c2)cc1 [DMH1]
inhibiting activity on AMPK, ALK5, KDR (VEGFR-2) and PDGFR [2]: no inhibiting activity

Molecule: c1ccc2c(-c3cnn4cc(-c5ccc(N6CCNCC6)cc5)cnc34)ccnc2c1 [LDN-193189]
selectivity on BMP higher than on TGF-β (BMP type I receptor ALK2; BMP vs TGF-β): 200 fold
IC50 (BMP type I receptor ALK2; C2C12 cells, read-out: IC50, transcription activity of BMP type I receptor ALK2): 5 nM
IC50 (BMP type I receptor ALK3): 30 nM

Molecule: Cc1cccc(-c2[nH]c(C(C)(C)C)nc2-c2ccc3nccnc3c2)n1 [SB525334]
effect on ALK4 lower than on ALK5 (ALK4): 4 fold
activity to ALK2, 3 and 6 (ALK2, 3 and 6): no activity
